Where “and” joins values, the source holds several entries; their conditions need not be identical. Equal values may be shown once. Marks after values point to notes of the source that are not given here.
Assays:
[1] = tested on: CBA mouse recipients of C57B1/6 donor hearts; experiment: heart-allograft survival in mice (abdominal heterotopic heart transplantation); format: in vivo; settings: for MSTSD / mean graft survival time: CBA recipients of C57B1/6 donor hearts, peptide intraperitoneal daily from day of transplantation until day nine
Procedure: Abdominal heterotopic heart transplantation was carried out as described previously in J. Thorac. Cardiovasc. Surg., vol. 7, page 225 (1969).
CBA mouse recipients of C57B1/6 donor hearts were treated daily with different doses of peptide following organ transplantation. Peptides were dissolved in DMSO and diluted in PBS (final DMSO concentration 10%) before intraperitoneal administration. Animals were treated from the day of transplantation until day nine. Graft survival was monitored daily by direct palpation, and rejection was defined as termination of palpable cardiac contractility. The statistical significance of prolongation of heart allograft survival was calculated using the Mann-Whitney test.

[2] = tested on: CBA mouse recipients of C57B1/6 donor hearts; settings: cited from earlier work

With “ENLRIALR [shortened peptide derived from 2702.75-84]” the MSTSD ([1]; dose not printed in table) was 8.5 0.7 (12).
With “NLRIALRYYW [peptide derived from peptide 2702.75-84]” the mean graft survival time ([1]; dose not printed in table) was 11.6 days.
For REDLRTLLRY, the MSTSD ([1]; dose not printed in table) was 7.7 1.2 (11).
With “RENLRIALRY [peptide derived from HLA-B2702, amino acids 75 to 84, reference compound]” the “allograft survival, reference peptide” value ([1]; 80 mg/kg/day) was “prolonged allograft survival”, the MSTSD ([1]; dose not printed in table) was 11.4 2.6 (1)* and 11.4 4.1 (1) and the “effect at lower doses, reference peptide” value ([1]; doses lower than 80 mg/kg/day) was “no effect was observed”. The “long-term graft survival” value ([1]; reference peptide administration) was “no long-term graft survival was induced”, the heart-allograft survival ([2]; 80 mg/kg/day for 10 days following transplantation of B6 donor hearts into CBA recipients, n=8, p<0.01 vs untreated) was 11.4 days and the “heart-allograft survival in mice” value ([2]; Transplantation, vol. 59, page 455 (1995)) was “prolongs heart-allograft survival in mice”. For the same substance, the “effect on graft survival at lower doses” value ([2]; doses lower than 80 mg/kg/day) was “No effect on graft survival was observed”.
With RESLRLLRGY the MSTSD ([1]; dose not printed in table) was 7.5 0.7 (10).
In the case of RMNLQTLRGY, the MSTSD ([1]; dose not printed in table) is reported as 7.5 0.7 (15).
In the case of RVDKRTLLGY, the MSTSD ([1]; dose not printed in table) is reported as 7.8 1.0 (8).
With RVDLRTLLRY the MSTSD ([1]; dose not printed in table) was 7.0 0.5 (7).
With “RVNLRIALRY [peptide derived from peptide 2702.75-84]” the mean graft survival time ([1]; dose not given) was 13.1 days and the MSTSD ([1]; dose not printed in table) was 11.5 0.5 (3).
RVNLRTALRY gave a mean graft survival time ([1]; dose not printed in table) of 8.5 days.
For RVNLRTLRRY, the MSTSD ([1]; dose not printed in table) was 8.0 0.5 (14).
In the case of RVSLRNLLGY, the MSTSD ([1]; dose not printed in table) is reported as 8.0 0.5 (9).
In the case of YRLAIRLNER, the MSTSD ([1]; dose not printed in table) is reported as 12.1 2.8 (2) and the MSTSD ([1]; dose not printed in table, listed as yrlairlner) is reported as 13.2 2.7 (2).
For YRLAIRLNVR, the mean graft survival time ([1]; dose not printed in table) was 12.5 days and the mean graft survival time ([1]; dose not printed in table, listed as yrlairlnvr) was 12.2 days.
With renlpialry the MSTSD ([1]; dose not printed in table) was 9.5 2.4 (13).
